# “Also recorded” adds a separate entry of the source. Read-outs that look alike come from different tables or passages of the source.
# Key:
# [1] = Pharmacokinetics of AUY922 and its glucuronide metabolite BJP762 in blood (LC-MS/MS, non-compartmental); type: in vivo, human (Japanese patients with advanced solid tumors); settings: for half-life / Tmax / AUC(0-inf) / AUC(0-t) / Cmax / clearance / Vd: human; for half-life / Tmax: blood; for Tmax: read-out: T max [median (range)]; for AUC(0-inf) / AUC(0-t) / Cmax / clearance / Vd: whole blood; for Vd: read-out: Vz
# Experimental: Intra-patient dose escalation was not permitted. […] The occurrence of DLTs was evaluated during Cycle 1.
# [2] = test system: advanced solid tumors; experiment: Tumor response, best overall response (RECIST version 1.0); type: in vivo, human (Japanese patients)
# Experimental: (§1) The starting dose was 8 mg/m^2, and treatment cycles were 28 days. Intra-patient dose escalation was not permitted. An adaptive Bayesian logistic regression model (BLRM), guided by the escalation with overdose control (EWOC) principle, was used to guide dose escalations. The EWOC principle mandates the potential doses recommended for the next cohort and the estimated MTD have less than 25 % posterior probability of DLT in the excessive toxicity interval (33, 100 %). […] The occurrence of DLTs was evaluated during Cycle 1. A minimum of three patients were enrolled in a cohort, and the estimated MTD was continuously updated using the BLRM, and a minimum of six patients were planned to be enrolled at the MTD level. […] A minimum of 15 patients were required for the BLRM model to determine the MTD. […] Doses were individually adjusted according to body surface area measured at baseline.
# (§2) Toxicity was graded according to the National Cancer Institute Common Toxicity Criteria version 3.0. […] Tumor response was assessed by computed tomography or magnetic resonance imaging, and using Response Evaluation Criteria in Solid Tumors version 1.0 for efficacy evaluations.
# [3] = Experimental: Inclusion criteria included Eastern Cooperative Oncology Group performance status ≤2 and life expectancy ≥12 weeks.
# as §1, §2
# The DDS was used for the BLRM analyses in the determination of MTD.
structure (smiles),measurement,setting,value
"CCNC(=O)c1noc(-c2cc(C(C)C)c(O)cc2O)c1-c1ccc(CN2CCOCC2)cc1 [AUY922, 5-[2,4-dihydroxy-5-isopropyl-phenyl]-N-ethyl-4-[4-(morpholinomethyl)phenyl]isoxazole-3-carboxamide]",Dose proportionality of C max in blood,[1]; entire dose range 8–70 mg/m^2,generally increased in a dose-proportional manner; also recorded: increased generally in a dose-proportional manner
same,half-life,"[1]; intravenous, 8 mg/m2",2.67 days
same,half-life,"[1]; iv, 28 mg/m2",4.11 ± 0.958 days
same,Tmax,"[1]; iv, 28 mg/m2",30 min
same,half-life,"[1]; iv, 40 mg/m2",5.12 ± 1.7 days
same,Tmax,"[1]; iv, 40 mg/m2",63 min
same,half-life,"[1]; iv, 54 mg/m2",5 ± 1.19 days
same,Tmax,"[1]; iv, 54 mg/m2",45.6 min
same,half-life,"[1]; iv, 70 mg/m2",5.29 ± 0.783 days
same,Tmax,"[1]; iv, 70 mg/m2",61.2 min
same,AUC(0-inf),"[1]; iv, 28 mg/m2",9550 ng·h/mL
same,AUC(0-t),"[1]; iv, 28 mg/m2",6810 ng·h/mL
same,Cmax,"[1]; iv, 28 mg/m2",457 ± 101 ng/mL
same,clearance,"[1]; iv, 28 mg/m2",79.8 mL/min
same,Vd,"[1]; iv, 28 mg/m2",646 ± 111 L
same,AUC(0-inf),"[1]; iv, 40 mg/m2",11400 ng·h/mL
same,AUC(0-t),"[1]; iv, 40 mg/m2",6960 ng·h/mL
same,Cmax,"[1]; iv, 40 mg/m2",710 ± 42 ng/mL
same,clearance,"[1]; iv, 40 mg/m2",95.7 mL/min
same,Vd,"[1]; iv, 40 mg/m2",980 ± 132 L
same,AUC(0-inf),"[1]; iv, 54 mg/m2",12300 ng·h/mL
same,AUC(0-t),"[1]; iv, 54 mg/m2",8880 ng·h/mL
same,Cmax,"[1]; iv, 54 mg/m2",1050 ng/mL
same,clearance,"[1]; iv, 54 mg/m2",121 mL/min
same,Vd,"[1]; iv, 54 mg/m2",1190 L
same,AUC(0-inf),"[1]; iv, 70 mg/m2",12600 ng·h/mL
same,AUC(0-t),"[1]; iv, 70 mg/m2",8540 ng·h/mL
same,Cmax,"[1]; iv, 70 mg/m2",1100 ng/mL
same,clearance,"[1]; iv, 70 mg/m2",143 mL/min
same,Vd,"[1]; iv, 70 mg/m2",1570 L
same,Dose dependence of AUClast in blood,[1]; increased with dose from 8 to 28 mg/m^2,saturated at higher dose levels; also recorded: saturated at higher doses
same,Best overall response: Complete response,[2]; 8 mg/m^2 (n = 3),0 n
same,Best overall response: Partial response,[2]; 8 mg/m^2 (n = 3),0 n
same,Best overall response: Progressive disease,[2]; 8 mg/m^2 (n = 3),2 n
same,Best overall response: Stable disease,[2]; 8 mg/m^2 (n = 3),1 n
same,Best overall response: Unknown,[2]; 8 mg/m^2 (n = 3),0 n
same,Disease control rate (CR + PR + SD),[2]; 8 mg/m^2 (n = 3),1 n
same,Overall response rate (CR + PR),[2]; 8 mg/m^2 (n = 3),0 n
same,Best overall response: Complete response,[2]; 16 mg/m^2 (n = 3),0 n
same,Best overall response: Partial response,[2]; 16 mg/m^2 (n = 3),0 n
same,Best overall response: Progressive disease,[2]; 16 mg/m^2 (n = 3),2 n
same,Best overall response: Stable disease,[2]; 16 mg/m^2 (n = 3),1 n
same,Best overall response: Unknown,[2]; 16 mg/m^2 (n = 3),0 n
same,Disease control rate (CR + PR + SD),[2]; 16 mg/m^2 (n = 3),1 n
same,Overall response rate (CR + PR),[2]; 16 mg/m^2 (n = 3),0 n
same,Best overall response: Complete response,[2]; 22 mg/m^2 (n = 3),0 n
same,Best overall response: Partial response,[2]; 22 mg/m^2 (n = 3),0 n
same,Best overall response: Progressive disease,[2]; 22 mg/m^2 (n = 3),3 n
same,Best overall response: Stable disease,[2]; 22 mg/m^2 (n = 3),0 n
same,Best overall response: Unknown,[2]; 22 mg/m^2 (n = 3),0 n
same,Disease control rate (CR + PR + SD),[2]; 22 mg/m^2 (n = 3),0 n
same,Overall response rate (CR + PR),[2]; 22 mg/m^2 (n = 3),0 n
same,Best overall response: Complete response,[2]; 28 mg/m^2 (n = 5),0 n
same,Best overall response: Partial response,[2]; 28 mg/m^2 (n = 5),0 n
same,Best overall response: Progressive disease,[2]; 28 mg/m^2 (n = 5),4 n
same,Best overall response: Stable disease,[2]; 28 mg/m^2 (n = 5),1 n
same,Best overall response: Unknown,[2]; 28 mg/m^2 (n = 5),0 n
same,Disease control rate (CR + PR + SD),[2]; 28 mg/m^2 (n = 5),1 n
same,Overall response rate (CR + PR),[2]; 28 mg/m^2 (n = 5),0 n
same,Best overall response: Complete response,[2]; 40 mg/m^2 (n = 3),0 n
same,Best overall response: Partial response,[2]; 40 mg/m^2 (n = 3),0 n
same,Best overall response: Progressive disease,[2]; 40 mg/m^2 (n = 3),2 n
same,Best overall response: Stable disease,[2]; 40 mg/m^2 (n = 3),1 n
same,Best overall response: Unknown,[2]; 40 mg/m^2 (n = 3),0 n
same,Disease control rate (CR + PR + SD),[2]; 40 mg/m^2 (n = 3),1 n
same,Overall response rate (CR + PR),[2]; 40 mg/m^2 (n = 3),0 n
same,Best overall response: Complete response,[2]; 54 mg/m^2 (n = 6),0 n
same,Best overall response: Partial response,[2]; 54 mg/m^2 (n = 6),1 n
same,Best overall response: Progressive disease,[2]; 54 mg/m^2 (n = 6),3 n
same,Best overall response: Stable disease,[2]; 54 mg/m^2 (n = 6),1 n
same,Best overall response: Unknown,[2]; 54 mg/m^2 (n = 6),1 n
same,Disease control rate (CR + PR + SD),[2]; 54 mg/m^2 (n = 6),2 n
same,Overall response rate (CR + PR),[2]; 54 mg/m^2 (n = 6),1 n
same,Best overall response: Complete response,[2]; 70 mg/m^2 (n = 8),0 n
same,Best overall response: Partial response,[2]; 70 mg/m^2 (n = 8),0 n
same,Best overall response: Progressive disease,[2]; 70 mg/m^2 (n = 8),3 n
same,Best overall response: Stable disease,[2]; 70 mg/m^2 (n = 8),5 n
same,Best overall response: Unknown,[2]; 70 mg/m^2 (n = 8),0 n
same,Disease control rate (CR + PR + SD),[2]; 70 mg/m^2 (n = 8),5 n
same,Overall response rate (CR + PR),[2]; 70 mg/m^2 (n = 8),0 n
same,Patients with best overall response of stable disease,"[2]; 70-mg/m^2 cohort, five out of the eight patients",63%
same,Best overall response: Complete response,"[2]; Total, all doses (N = 31)",0 n (%)
same,Best overall response: Partial response,"[2]; Total, all doses (N = 31)",1 (3) n (%)
same,Best overall response: Progressive disease,"[2]; Total, all doses (N = 31)",19 (61) n (%)
same,Best overall response: Stable disease,"[2]; Total, all doses (N = 31)",10 (32) n (%)
same,Best overall response: Unknown,"[2]; Total, all doses (N = 31)",1 (3) n (%)
same,Disease control rate (CR + PR + SD),"[2]; Total, all doses (N = 31)",11 (36) n (%)
same,Overall response rate (CR + PR),"[2]; Total, all doses (N = 31)",1 (3) n (%)
same,Disease control rate (DCR; PR + SD),[2]; across all dose levels,36%
same,Complete response,[2]; all doses,no patients achieved a complete response
same,Patients with confirmed partial response,"[2]; all doses (N = 31), one patient",3%
same,Patients with best overall response of stable disease,"[2]; all doses (N = 31), ten patients, SD lasting ≥8 weeks",32%
same,Duration of confirmed partial response,"[2]; one patient, rectal carcinoid tumor with lung metastatic lesions, 54 mg/m^2",> 7 months
same,Maximum tolerated dose (MTD),"[3]; IV once-weekly, 8–70 mg/m^2 tested",No MTD was determined; also recorded: the MTD was not determined; also recorded: The MTD was not established
same,"Diarrhea, AE regardless of relationship to study drug","[3]; human, in vivo",65%
same,"Fatigue, AE regardless of relationship to study drug","[3]; human, in vivo",29%
same,"Nausea, AE regardless of relationship to study drug","[3]; human, in vivo",29%
same,"Night blindness, AE regardless of relationship to study drug","[3]; human, in vivo",42%
same,Patients with AEs requiring dose modification or interruption,"[3]; human, in vivo",48%
same,Patients with serious AEs (SAEs),"[3]; human, in vivo",26%
same,Patients who experienced DLTs,"[3]; human, in vivo, 28 days",3.6%
same,Recommended Phase II dose (RP2D),"[3]; human, in vivo, iv",70 mg/m^2
same,Patients discontinued as a result of AEs related to study drug,[3]; in vivo,two patients
same,Patients with SAEs considered to be related to the study drug,[3]; in vivo,two patients

# From publication PMC4143601 (Cancer Chemotherapy and Pharmacology, 2014)
